Laboratory results as given in patent US20090263317A1, “METHOD OF SCREENING THE ACTIVITY OF THE SMOOTHENED RECEPTOR TO IDENTIFY THERAPUTIC MODULATION AGENTS OR DIAGNOSE DISEASE” (priority 2005, published 2009).

Target: T1, Smo (Homo sapiens, UniProt Q99835)
T1 construct: expressed in transfected cells; host or cells: HEK293
Assay: Membrane recruitment (translocation) of βarr2-GFP, confocal imaging
Type: cell-based
Text: Localization of beta-arrestin2 green fluorescent protein (βarr2-GFP) to the plasma membrane in cells overexpressing Smo seen in FIG. 1: Confocal images of βarr2-GFP expressed alone (A) or with Myc-Smo (B) in Human embryonic kidney (HEK)293 cells. (C) Effects of Ptc, ShhN, and G protein coupled receptor kinase (GRK2) on recruitment of βarr2-GFP to the plasma membrane. βarr2-GFP was expressed with Myc-Smo (bar 1), Myc-Smo and FLAG-Ptc (bar 2), Myc-Smo and FLAG-Ptc (co-cultured with HEK293 expressing Sonic hedgehog (Shh)N-terminus, an active form of Shh (bar 3), or Myc-Smo and GRK2 (bar 4) in HEK293 cells. Data are presented as the percentage of βarr2-GFP-13 expressing cells with recruitment of βarr2-GFP and are the means±SEM of three independent experiments. *P<0.05 (compared with bar 1) and **P<0.005 (compared with bar 2) (unpaired t test).
Confocal images of βarr2-GFP expressed with FLAG-Ptc (A), FLAG-Ptc and Myc-Smo (B), and Myc-Smo (C and D) in HEK293 cells. Cells were left untreated (A to C) or treated with 8 μM cyclopamine (D) at 37° C. for 5 min. […] (F and G) Confocal images of cells stimulated with 0.3 μM SAG at 37° C. for 0 min (F) and 30 min (G). HEK293 cells were transfected with βarr2-GFP, FLAG-Ptc, Myc-Smo, and GRK2.

T1 sequence (Q99835 28-787): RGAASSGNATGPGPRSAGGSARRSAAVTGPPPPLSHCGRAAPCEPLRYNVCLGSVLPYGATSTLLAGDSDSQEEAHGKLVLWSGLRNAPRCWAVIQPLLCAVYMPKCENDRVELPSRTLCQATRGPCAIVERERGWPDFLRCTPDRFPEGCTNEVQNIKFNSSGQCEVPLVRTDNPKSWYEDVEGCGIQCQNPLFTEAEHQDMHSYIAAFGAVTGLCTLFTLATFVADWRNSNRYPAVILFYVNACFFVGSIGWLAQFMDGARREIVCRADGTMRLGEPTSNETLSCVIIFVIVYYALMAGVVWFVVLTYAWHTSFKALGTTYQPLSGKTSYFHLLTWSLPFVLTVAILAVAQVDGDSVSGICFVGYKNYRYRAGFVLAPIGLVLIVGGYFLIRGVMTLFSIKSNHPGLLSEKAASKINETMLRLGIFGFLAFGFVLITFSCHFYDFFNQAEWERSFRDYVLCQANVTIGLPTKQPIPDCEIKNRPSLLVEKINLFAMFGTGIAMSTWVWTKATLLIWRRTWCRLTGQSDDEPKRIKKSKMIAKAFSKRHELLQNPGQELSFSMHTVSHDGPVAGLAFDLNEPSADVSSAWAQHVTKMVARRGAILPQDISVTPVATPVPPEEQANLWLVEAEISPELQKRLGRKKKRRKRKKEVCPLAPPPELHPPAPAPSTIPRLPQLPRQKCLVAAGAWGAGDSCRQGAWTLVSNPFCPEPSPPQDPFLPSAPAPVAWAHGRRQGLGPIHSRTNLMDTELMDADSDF

CNC1CCC(N(Cc2cccc(-c3ccncc3)c2)C(=O)c2sc3ccccc3c2Cl)CC1 (centres unmarked) [SAG]
Recruitment of βarr2-GFP to the plasma membrane under Ptc inhibition (HEK293 cells transfected with βarr2-GFP, FLAG-Ptc, Myc-Smo and GRK2, 0.3 μM SAG at 37° C., 30 min versus 0 min): relieves Ptc inhibition of recruitment of βarr2-GFP to the plasma membrane

CC1=C2C[C@H]3[C@@H](CC=C4C[C@@H](O)CC[C@@]43C)[C@@H]2CC[C@]12O[C@@H]1C[C@H](C)CN[C@H]1[C@H]2C [cyclopamine]
Recruitment of βarr2-GFP to Smo (HEK293 cells expressing βarr2-GFP and Myc-Smo, 8 μM cyclopamine at 37° C. for 5 min, versus untreated): ablated
